Columns and labels:
[1] = system: normal human epidermal keratinocytes (neonatal keratinocytes, NHEK)
Protocol: To test a possible cytotoxic effect resulting in a morphological change of keratinocytes, normal human epidermal keratinocytes were obtained from Clonetics (neonatal keratinocytes, NHEK) and were cultured according to the manufacturers' protocol. In short, after thawing, the keratinocytes were cultured in T-75 flasks in keratinocyte culture media (provided by the manufacturer) until they reached 70-80% confluency. The keratinocytes were then trypsinized, transferred into new T-75 flasks at a density of 3500 cells/cm^2. After this expansion step the keratinocytes were immediately used for the cytotoxic assay procedure or were frozen for later use. […] Cells treated with media only were used as a negative control. Photos were taken at 3, 6 and 24 hours after stimulation for documentary reasons.

[2] = system: human melanoma cell line (Mel-Ho); experiment: Melanocyte dendrite outgrowth assay; type: cell-based; details: Mel-Ho cells; for dendrite formation (dendricity): 100 µM, treated for 24 hours, digital photography (Figure 1)
From the text: A possibility to test the effect of a compound on melanocyte function as a measure for pigmentation, the melanocyte dendrite outgrowth assay can be performed. Vitiligo melanocytes for example have only stubby dendrites. Increasing dendricity as a prerequisite for the transfer of the melanosomes from melanocytes to the surrounding keratinocytes rescues this defect. For this assay, cells from a human melanoma cell line (Mel-Ho) were obtained from DSMZ (Deutsche Sammlung für Mikroorganismen und Zellkulturen) and were cultured according to the protocol provided by DSMZ. In short, after thawing the melanocytes were cultured in T-75 flasks in melanocyte culture media (provided by the manufacturer) until they reach 70-80% confluency. The melanocytes were then trypsinized, transferred into 5-10 new T-75 flasks, and grown again to same confluency as described above. After this expansion step the melanocytes were immediately used for the Melanocyte Dendrite Outgrowth Assay or were frozen for later use. […] Forskolin is known to cause increased melanocyte dendricity and was used as a positive control. […] Melanocyte dendrite outgrowth was documented by digital photography (Canon G2 Powershot) after 3, 6 and 24 hours.

Structure (SMILES) | morphological changes as a measure for cytotoxicity [1] | dendrite formation (dendricity) [2] | dendrite formation ([2]; concentrations lower than 100 µM) | morphological changes as a measure for cytotoxicity (HaCaT keratinocytes)
Cl.Cl.O=S(=O)(c1cccc2cnccc12)N1CCCNCC1 [1-(5-isoquinolinesulfonyl)homopiperazine dihydrochloride] | No morphological changes | dendricity was strongly stimulated | sufficient to induce dendrite formation | No morphological changes
O=S(=O)(c1cccc2cnccc12)N1CCCNCC1 [1-(5-isoquinolinesulfonyl)homopiperazine] | normal morphology | strong dendrite formation |  | normal morphology

From patent EP1550446A1, “Use of 1-(5-isoquinolinesulfonyl) homopiperazine for treating and preventing hypopigmentary disorders” (priority 2003, dated 2005)
